According to US20160015064A1, “COMPOUNDS, COMPOSITIONS, AND METHODS FOR MODULATING SWEET TASTE” (CHROMOCELL CORPORATION, priority 2013, published 2016):

Experiments:
[1] = system: perception of the sweet taste of an aqueous solution of sweetener; experiment: Two-alternative forced choice sip and spit method (2AFC); format: in vivo, humans
Description: The effect of the test compounds on the perception of the sweet taste of an aqueous solution of sweetener in humans was evaluated using a two-alternative forced choice “sip and spit” method (2AFC).
The aqueous sweetener solutions were prepared by adding, fructose, sucrose or glucose (by weight), to water to achieve the desired concentration.
(§1) Compounds were first prepared as a 500-fold concentrated stock solution in 100% ethanol. These concentrated stocks were then added to the aqueous sweetener solutions to result in a final ethanol concentration of 0.2%. The control (positive and negative) samples were also normalized to 0.2% ethanol. This level of ethanol was not seen to contribute any perceived sweetness.
The 2AFC test used for compound evaluation was a blind and randomized test where taste panelists (n=15) evaluate a pair of sweetener solutions at a time—one sample contains aqueous sweetener solution plus compound (i.e. test) while the other contains aqueous sweetener solution at higher concentration without compound (i.e. positive control). Each test sample was compared against a positive control. For example, if the test sample contained 1× sweetener concentration with compound (e.g. 5% sucrose with compound), the positive control sample contained a 1.1× sweetener concentration (e.g. 5.5% sucrose without compound).
Panelists were instructed not to eat or drink (except water) for at least 1 h before the test. During the test, panelists were instructed to sip each sample, swirl it around their mouth and then expectorate. After tasting each sample in the pair, panelists were instructed to record the sample that is “sweeter” in taste. Panelists cleansed their palates by rinsing with water, eating a cracker and waiting for an interval of about 5 minutes. Each pair was tasted twice. All samples were tasted at ambient temperatures. Data were analyzed using binomial probabilities.
Approximate levels of sweetness enhancement in column 5 of Table 2 were calculated as follows:
Approximate levels of sweetness enhancement=Sweetener concentration of positive control surpassed by the test sample, divided by sweetener concentration for compound-containing sample (e.g. 1.15×=5.75% sucrose/5% sucrose).

[2] = system: perception of sweet taste, in an aqueous solution; experiment: Inherent sweetness assessment, difference from control sip and spit method; format: in vivo, humans; conditions: no sweetener
Description: The aqueous sucrose solutions were prepared by adding, sucrose (by weight), to water to achieve the desired concentration.
as §1, with “water” for “the aqueous sweetener solutions”, “(including positive control)” for “(positive and negative)”
The intrinsic effect of test compounds on the perception of sweet taste, in an aqueous solution, in humans was evaluated using a difference from control “sip and spit” method employing a verbal category scale.
In this method, panelists (n=12) evaluate one pair of samples at a time—one sample contains water plus compound (i.e. test) while the other contains water without compound (i.e. control). Panelists were instructed to first taste the un-blinded control followed by the test sample and asked to rate the size of sweetness difference between the test and control sample, using a 6 point verbal category scale:
Verbal category scale • No difference • Slight difference • Slight/moderate difference • Moderate difference • Moderate/large difference • Very large difference
4 blinded controls comprising of one negative control (0% sucrose) and 3 positive control samples (0.5% sucrose, 1% sucrose and 2% sucrose) were also included as part of the test to evaluate the ability of panelists to rank the difference in sweetness perception between 0.5% sucrose, 1% sucrose and 2% sucrose compared to 0% sucrose control.
Panelists were instructed not to eat or drink (except water) for at least 1 h before the test. During the test, panelists were instructed to sip each sample, swirl it around their mouth and then expectorate. Panelists cleansed their palates by rinsing with water, eating a cracker and waiting for an interval of about 5 minutes. All samples were tasted at ambient temperatures.
The verbal category response for each test sample was converted into an integer numerical value, from 1 to 6 (e.g. no difference=1 and very large difference=6). Total numbers of panelist responses per integer value were plotted as a histogram. An assessment was then made, comparing mean, mode of the numerical value, and the distribution of the histogram plots, for test samples as compared to that of the positive (0.5% sucrose, 1% sucrose and 2% sucrose) and negative control (0% sucrose) sample. Inherent sweetness levels are then correlated to the positive controls as discrete bins: • Bin 1: 0% sucrose • Bin 2: >0% sucrose—<0.5% sucrose • Bin 3: 0.5% sucrose • Bin 4: >0.5% sucrose—<1% sucrose • Bin 5: 1% sucrose • Bin 6: >1% sucrose—<2% sucrose • Bin 7: 2% sucrose

[3] = system: sweetness of orange juice beverage; experiment: Panel sweetness of 75% orange juice with Compound 3 compared to 100% orange juice; format: in vivo
Description: Concentrated citrus juice (e.g., orange juice concentrate and lemon juice concentrate) can be used to emulsify flavor oils directly. Dilutions of the Compound 3 were made by dissolving the compound into NEOBEE® M-5 oil at 20 mg/ml and into triacetin at 40 mg/ml. These dilutions were then added to orange juice concentrate (60 brix and 63 brix) and lemon juice concentrate (400 gpl) to deliver a final concentration of 15-30 ppm Compound 3, and blended with the Silverson High Shear Mixer. The juices were diluted to their single strength levels (or less) for final consumption.
In one example, Compound 3 was dissolved into triacetin at a concentration of 40 mg/ml. The Compound 3-triacetin mixture was added to orange juice concentrate (1+3 throw) and blended using a high shear mixer. The concentrate was then diluted to a 75% juice product (8.85 brix) and compared to single strength orange juice (11.8 brix). The test sample contained Compound 3 at 20 ppm. Other test variables using 1+5 were included in the panel. Tests were performed with just Compound 3 in orange juice at full strength and 75%. Compound 3 was dosed at 20 and 30 ppm, and the resulting solutions were tested at day 1, 7, 14, and 21. N varied between 9 and 14 panelists.

[4] = test sample 4% fructose, compound 25 ppm with positive 2AFC

| Structure (SMILES) | Fold increase in perceived sweetness [1, 4] | Fold increase in perceived sweetness ([1]; test sample 5% sucrose, compound 15, 25 ppm with positive 2AFC) | Fold increase in perceived sweetness ([1]; test sample 6.5% glucose, compound 10, 20, 25 ppm with positive 2AFC) | Correlated Inherent Sweetness Assessment ([2]; compound 10 ppm in water) | Correlated Inherent Sweetness Assessment ([2]; compound 15 ppm in water) | Relative Sweetness Compared to Control (100% OJ) ([3]; T1: 75% OJ w/20 ppm, Fresh, Day 1 (Fresh)) | Relative Sweetness Compared to Control (100% OJ) ([3]; T2: 75% OJ w/30 ppm, Aged, Day 21) | Relative Sweetness Compared to Control (100% OJ) ([3]; T2: 75% OJ w/30 ppm, Fresh, Day 1 (Fresh)) | Fold increase in perceived sweetness ([1]; test sample 5% sucrose, compound 15 ppm with positive 2AFC, positive control surpassed / test sweetener concentration) | Fold increase in perceived sweetness ([1]; test sample 6.5% glucose, compound 25 ppm with positive 2AFC) |
| --- | --- | --- | --- | --- | --- | --- | --- | --- | --- | --- |
| COc1ccc(C2CC(=O)c3c(O)cccc3O2)cc1O (single isomer, unassigned) [Compound 2, 5-hydroxy-2-(3-hydroxy-4-methoxyphenyl)chroman-4-one] | >1.20X | >1.20X | >1.15X | 0.5%-1% sucrose | 1% sucrose | – | – | – | – | – |
| COc1ccc(C2CC(=O)c3c(O)cccc3O2)cc1O (single isomer, unassigned) [Compound 3, 5-hydroxy-2-(3-hydroxy-4-methoxyphenyl)chroman-4-one] | >1.25X | – | – | 0.5%-1% sucrose | 1% sucrose | Same as Control | added sweetness | Same as Control | >1.20X | >1.20X |
